{"source": "patent US5478856A", "about": "“Styrene derivatives and salts thereof” (Taiho Pharmaceutical Co., Ltd., priority 1992, dated 1995)", "data": [{"molecular_target": "Cyclooxygenase", "experiment": "Cyclooxygenase inhibiting effect (prostaglandin E2 formation from 14C-arachidonic acid, seminal vesicular gland microsomes)", "assay_type": "biochemical", "details": "seminal vasicular gland microsomes, prostaglandin E2 radioactivity", "protocol": "(1) Cyclooxygenase inhibiting effect\nThis assay was carried out by the method described in Russell J. Taylor et al., Biochem. Pharmacol., 25, 2479-2484 (1976).\n^14 C-arachidonic acid was reacted with seminal vasicular gland microsomes and the test drugs at various concentrations over a predetermined period of time and the obtained prostaglandin E2 was separated by thin layer chromatography. The radioactivity of prostaglandin E2 was determined by liquid scintillation counter. The IC50 values were calculated by the comparison with the radioactivity of the control.", "units": {"IC50": "nM"}, "values": [{"compound": "COc1ccc(-c2noc(CCNC(=O)C(C#N)=CC=Cc3cc(OC)c(O)c(OC)c3)c2-c2ccc(OC)cc2)cc1", "note": "[Compound 11]", "IC50": 680}, {"compound": "CCCC(=Cc1cc(OC)c(O)c(OC)c1)C(=O)NCCc1onc(-c2ccc(OC)cc2)c1-c1ccc(OC)cc1", "note": "[Compound 4]", "IC50": 950}, {"compound": "COc1ccc(-c2noc(CCN(CC(=O)O)C(=O)C=CC=Cc3cc(OC)c(O)c(OC)c3)c2-c2ccc(OC)cc2)cc1", "note": "[Compound 23]", "IC50": 2940}, {"compound": "COc1ccc(-c2noc(C(C#N)=Cc3cc(OC)c(O)c(OC)c3)c2-c2ccc(OC)cc2)cc1", "note": "[Compound 20]", "IC50": 1850}, {"compound": "COc1ccc(-c2noc(CCNC(=O)C(=Cc3cc(OC)c(O)c(OC)c3)C(=O)N(C)C)c2-c2ccc(OC)cc2)cc1", "note": "[Compound 8]", "IC50": 4760}, {"compound": "COc1ccc(-c2noc(CCNC(=O)C(=Cc3cc(OC)c(O)c(OC)c3)c3cccs3)c2-c2ccc(OC)cc2)cc1", "note": "[Compound 7]", "IC50": 170}, {"compound": "CCOC(=O)C(=Cc1cc(OC)c(O)c(OC)c1)C(=O)NCCc1onc(-c2ccc(OC)cc2)c1-c1ccc(OC)cc1", "note": "[Compound 1]", "IC50": 2870}, {"compound": "COc1ccc(-c2noc(CCNC(=O)C(=Cc3cc(OC)c(O)c(OC)c3)c3ccccn3)c2-c2ccc(OC)cc2)cc1", "note": "[Compound 6]", "IC50": 1380}, {"compound": "COc1ccc(-c2noc(CCNC(=O)C(=Cc3cc(OC)c(O)c(OC)c3)NC(C)=O)c2-c2ccc(OC)cc2)cc1", "note": "[Compound 18]", "IC50": 110}, {"compound": "COCC(=Cc1cc(OC)c(O)c(OC)c1)C(=O)NCCc1onc(-c2ccc(OC)cc2)c1-c1ccc(OC)cc1", "note": "[Compound 3]", "IC50": 1200}, {"compound": "COc1ccc(-c2noc(CCNC(=O)C(C#N)=Cc3cc(OC)c(O)c(OC)c3)c2-c2ccc(OC)cc2)cc1", "note": "[Compound 2]", "IC50": 4050}]}, {"molecular_target": "T1, 5-Lipoxygenase (Cavia porcellus, UniProt A0A286X958)", "T1 construct": "the polymorphonuclear leucocytes were collected and the cytosol fraction was obtained as an enzyme source; endogenous in cells; host or cells: guinea pig peritoneal polymorphonuclear leucocytes (casein-elicited), cytosol fraction", "T1 sequence (A0A286X958 1-674)": "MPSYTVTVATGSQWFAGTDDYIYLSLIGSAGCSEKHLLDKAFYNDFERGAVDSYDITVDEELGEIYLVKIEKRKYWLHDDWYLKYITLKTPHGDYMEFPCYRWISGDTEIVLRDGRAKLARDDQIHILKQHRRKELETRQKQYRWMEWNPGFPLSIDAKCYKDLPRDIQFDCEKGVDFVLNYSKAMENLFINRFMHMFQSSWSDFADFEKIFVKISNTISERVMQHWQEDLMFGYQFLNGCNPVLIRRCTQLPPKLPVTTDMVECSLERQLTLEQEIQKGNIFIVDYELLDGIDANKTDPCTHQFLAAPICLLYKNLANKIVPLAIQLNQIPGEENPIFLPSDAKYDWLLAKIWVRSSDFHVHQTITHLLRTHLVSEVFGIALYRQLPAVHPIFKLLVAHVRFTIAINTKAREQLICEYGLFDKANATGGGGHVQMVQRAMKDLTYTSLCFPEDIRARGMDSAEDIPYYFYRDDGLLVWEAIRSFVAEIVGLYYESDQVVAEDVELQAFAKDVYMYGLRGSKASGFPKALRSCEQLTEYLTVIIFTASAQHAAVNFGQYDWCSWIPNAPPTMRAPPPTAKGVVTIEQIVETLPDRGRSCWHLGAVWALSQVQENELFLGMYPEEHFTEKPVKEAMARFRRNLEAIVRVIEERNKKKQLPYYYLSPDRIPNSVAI", "experiment": "5-Lipoxygenase inhibiting activity (5-hydroxyeicosatetraenoic acid formation from 14C-arachidonic acid, cytosol fraction of polymorphonuclear leucocytes)", "assay_type": "biochemical", "details": "guinea pig polymorphonuclear leucocyte cytosol, 5-hydroxyeicosatetraenoic acid radioactivity", "protocol": "(2) 5-Lipoxygenase inhibiting activity\nThis assay was carried out by the method described in Kenkichi Ochi et al., J. Biol. Chem., 258, 5754-5758 (1983).\nCasein was injected into the abdominal cavity of a guinea pig, and the polymorphonuclear leucocytes were collected and the cytosol fraction was obtained as an enzyme source. ^14 C-arachidonic acid was reacted with the enzyme and the test drug at various concentrations over a predetermined period of time. The obtained 5-hydroxyeicosatetraenoic acid was separated by thin layer chromatography and the radioactivity was determined. The IC50 values were calculated by the comparison with the radioactivity of the control.", "units": {"IC50": "nM"}, "values": [{"compound": "COc1ccc(-c2noc(CCNC(=O)C(C#N)=CC=Cc3cc(OC)c(O)c(OC)c3)c2-c2ccc(OC)cc2)cc1", "note": "[Compound 11]", "IC50": 240}, {"compound": "CCCC(=Cc1cc(OC)c(O)c(OC)c1)C(=O)NCCc1onc(-c2ccc(OC)cc2)c1-c1ccc(OC)cc1", "note": "[Compound 4]", "IC50": 180}, {"compound": "COc1ccc(-c2noc(CCN(CC(=O)O)C(=O)C=CC=Cc3cc(OC)c(O)c(OC)c3)c2-c2ccc(OC)cc2)cc1", "note": "[Compound 23]", "IC50": 90}, {"compound": "COc1ccc(-c2noc(C(C#N)=Cc3cc(OC)c(O)c(OC)c3)c2-c2ccc(OC)cc2)cc1", "note": "[Compound 20]", "IC50": 240}, {"compound": "COc1ccc(-c2noc(CCNC(=O)C(=Cc3cc(OC)c(O)c(OC)c3)C(=O)N(C)C)c2-c2ccc(OC)cc2)cc1", "note": "[Compound 8]", "IC50": 260}, {"compound": "COc1ccc(-c2noc(CCNC(=O)C(=Cc3cc(OC)c(O)c(OC)c3)c3cccs3)c2-c2ccc(OC)cc2)cc1", "note": "[Compound 7]", "IC50": 80}, {"compound": "CCOC(=O)C(=Cc1cc(OC)c(O)c(OC)c1)C(=O)NCCc1onc(-c2ccc(OC)cc2)c1-c1ccc(OC)cc1", "note": "[Compound 1]", "IC50": 1170}, {"compound": "COc1ccc(-c2noc(CCNC(=O)C(=Cc3cc(OC)c(O)c(OC)c3)c3ccccn3)c2-c2ccc(OC)cc2)cc1", "note": "[Compound 6]", "IC50": 620}, {"compound": "COc1ccc(-c2noc(CCNC(=O)C(=Cc3cc(OC)c(O)c(OC)c3)NC(C)=O)c2-c2ccc(OC)cc2)cc1", "note": "[Compound 18]", "IC50": 180}, {"compound": "COCC(=Cc1cc(OC)c(O)c(OC)c1)C(=O)NCCc1onc(-c2ccc(OC)cc2)c1-c1ccc(OC)cc1", "note": "[Compound 3]", "IC50": 300}, {"compound": "COc1ccc(-c2noc(CCNC(=O)C(C#N)=Cc3cc(OC)c(O)c(OC)c3)c2-c2ccc(OC)cc2)cc1", "note": "[Compound 2]", "IC50": 650}]}]}
